Measured values reported in patent publication US20250170266A1 (ZYMEWORKS BC INC., priority 2022, published 2025).
Where two headings read alike, the source gives them in different places.

Tests used:
Type in all cases: cell-based
hTLR7 = target: T1, hTLR7 (Homo sapiens, UniProt Q9NYK1); experiment: Reporter Gene Assay (RGA), HEK-Blue hTLR7 reporter cells, SEAP readout; details: overnight incubation, SEAP absorbance 620 nm
T1 construct: host or cells: HEK-Blue hTLR7 reporter cells (HEK293-derived, own knowledge)
T1 sequence (Q9NYK1 27-1049): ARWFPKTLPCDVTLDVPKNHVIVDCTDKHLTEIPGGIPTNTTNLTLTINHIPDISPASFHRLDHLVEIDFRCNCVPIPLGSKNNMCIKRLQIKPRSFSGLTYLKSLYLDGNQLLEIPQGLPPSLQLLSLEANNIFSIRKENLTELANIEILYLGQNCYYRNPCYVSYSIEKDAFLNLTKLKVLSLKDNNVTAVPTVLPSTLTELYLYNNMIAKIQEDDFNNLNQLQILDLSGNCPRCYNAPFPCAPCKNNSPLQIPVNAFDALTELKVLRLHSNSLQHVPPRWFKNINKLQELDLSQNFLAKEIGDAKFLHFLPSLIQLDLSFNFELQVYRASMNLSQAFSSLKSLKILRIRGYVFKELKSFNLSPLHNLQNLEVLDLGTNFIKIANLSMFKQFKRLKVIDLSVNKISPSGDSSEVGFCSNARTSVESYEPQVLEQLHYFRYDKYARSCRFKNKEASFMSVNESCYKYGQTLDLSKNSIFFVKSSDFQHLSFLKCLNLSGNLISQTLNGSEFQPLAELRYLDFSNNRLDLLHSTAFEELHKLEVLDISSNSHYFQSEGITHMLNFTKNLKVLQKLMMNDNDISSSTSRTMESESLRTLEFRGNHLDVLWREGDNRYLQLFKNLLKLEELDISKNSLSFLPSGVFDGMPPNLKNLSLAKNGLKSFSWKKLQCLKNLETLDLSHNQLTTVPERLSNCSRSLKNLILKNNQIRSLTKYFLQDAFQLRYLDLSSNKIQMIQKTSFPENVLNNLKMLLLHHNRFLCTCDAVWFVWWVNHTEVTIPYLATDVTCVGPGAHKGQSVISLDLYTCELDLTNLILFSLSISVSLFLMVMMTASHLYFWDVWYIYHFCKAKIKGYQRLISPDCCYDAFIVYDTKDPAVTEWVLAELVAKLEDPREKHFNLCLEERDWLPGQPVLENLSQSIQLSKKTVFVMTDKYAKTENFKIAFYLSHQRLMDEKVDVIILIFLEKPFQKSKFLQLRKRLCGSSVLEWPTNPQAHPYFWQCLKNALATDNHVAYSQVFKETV
Method: (§1) 1.5×10^4 HEK-Blue™ hTLR7 (Invivogen, San Diego, CA) or HEK-Blue™ mTLR7 (Invivogen, San Diego, CA) reporter cells were treated with a titration series of test compound (4-fold titration from […], 11 points). Compounds were initially diluted to 1 mM in DMSO and subsequently serial-diluted in assay media (HEK-Blue™ Detection; Invivogen, San Diego, CA). Cells with test compound were incubated overnight at 37° C.+5% CO2, and the amount of secreted embryonic alkaline phosphatase (SEAP) was determined by measuring absorbance (620 nm) using a Synergy™ H1 microplate reader.
(§2) Each assay included a positive control compound (referred to herein as “benchmark,” see, e.g., TABLE 3 below, and taken from International Patent Publication No. WO2017/072662, structure shown below) and a negative control (growth medium). […] The structure of the benchmark compound from International Patent Publication No. WO 2017/072662 is as follows: […]

mTLR7 = target: T2, mTLR7 (Mus musculus, UniProt P58681); experiment: Reporter Gene Assay (RGA), HEK-Blue mTLR7 reporter cells, SEAP readout; details: overnight incubation, SEAP absorbance 620 nm
T2 construct: host or cells: HEK-Blue mTLR7 reporter cells (HEK293-derived, own knowledge)
T2 sequence (P58681 27-1050): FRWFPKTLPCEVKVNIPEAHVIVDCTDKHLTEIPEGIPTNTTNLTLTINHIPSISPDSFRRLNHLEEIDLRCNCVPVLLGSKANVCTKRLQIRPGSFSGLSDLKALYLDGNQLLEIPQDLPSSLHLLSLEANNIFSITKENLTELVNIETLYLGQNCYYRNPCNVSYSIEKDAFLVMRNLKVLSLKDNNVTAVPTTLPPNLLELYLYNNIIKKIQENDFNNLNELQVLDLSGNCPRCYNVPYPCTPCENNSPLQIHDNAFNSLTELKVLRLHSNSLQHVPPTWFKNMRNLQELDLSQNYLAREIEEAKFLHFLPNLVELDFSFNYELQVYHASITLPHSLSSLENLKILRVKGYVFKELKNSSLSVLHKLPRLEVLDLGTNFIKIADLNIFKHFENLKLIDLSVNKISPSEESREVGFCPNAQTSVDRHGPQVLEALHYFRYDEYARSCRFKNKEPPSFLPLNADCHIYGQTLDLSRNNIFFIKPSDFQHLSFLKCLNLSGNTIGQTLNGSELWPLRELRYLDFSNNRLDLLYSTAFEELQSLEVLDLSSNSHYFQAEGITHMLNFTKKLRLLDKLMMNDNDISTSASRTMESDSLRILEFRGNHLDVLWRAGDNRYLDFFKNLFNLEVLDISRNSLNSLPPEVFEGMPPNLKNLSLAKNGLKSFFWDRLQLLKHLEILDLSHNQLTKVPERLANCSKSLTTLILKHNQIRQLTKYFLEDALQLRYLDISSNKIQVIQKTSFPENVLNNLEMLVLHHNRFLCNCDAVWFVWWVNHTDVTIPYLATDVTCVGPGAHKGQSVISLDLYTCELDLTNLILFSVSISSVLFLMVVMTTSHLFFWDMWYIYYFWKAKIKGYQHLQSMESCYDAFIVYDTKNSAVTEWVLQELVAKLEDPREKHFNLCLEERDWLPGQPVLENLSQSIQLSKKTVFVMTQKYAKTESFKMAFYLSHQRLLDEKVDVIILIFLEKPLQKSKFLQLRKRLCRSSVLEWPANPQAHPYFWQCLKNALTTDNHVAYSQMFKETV
Method: as §1, §2

[1] = tested on: Human peripheral blood mononuclear cells (PBMCs); experiment: Human PBMC Assay, cytokine release (HTRF); details: PBMC, 24 hours
Description: Human peripheral blood mononuclear cells (PBMCs) were isolated from fresh Leukopak using magnetic separation. Briefly, erythrocytes and granulocytes were magnetically labeled with Erythrocyte Depletion MicroBeads (Miltenyi Biotec) and Granulocyte Depletion MicroBeads (Miltenyi Biotec), respectively. The cell suspension was loaded onto a Multi-24 Column Block (Miltenyi Biotec) and placed in the magnetic field of a MultiMACS Cell24 Separator Plus (Miltenyi Biotec). The unlabelled PBMCs were collected in the run through. PBMCs were resuspended in CryoStor® CS10 ([…]) and frozen. On the day before the assay, PBMCs were thawed in warm assay buffer (RPMI+10% FBS) and resuspended in assay buffer+10 ng/ml hIL3 (R&D Systems). Cells were rested at 37° C.+5% CO2 overnight. The following day, cells were spun down and resuspended in fresh assay buffer. 300,000 cells were added to each well of plates containing test compound. For test compound preparation, each compound was initially diluted to 1 mM in DMSO and further diluted in assay buffer. A 4-fold 11-point titration starting from 15 μM was performed. Cells were incubated with test compound at 37° C.+5% CO2 for 24 hours before supernatant was harvested. Human interleukin 6 (hIL6), human tumor necrosis factor alpha (hTNFα), and human interferon alpha (hIFNα) were quantified in the supernatant using homogeneous time resolved fluorescence (Cisbio).
as §2

Mouse splenocytes = experiment: Mouse Splenocyte Assay, cytokine release (HTRF); details: Splenocyte, 24 hours, mIL6 in supernatant, read-out: Splenocyte IL6 EC50
Method: Mouse splenocytes were isolated from fresh mouse spleens. Briefly, spleens were harvested from female balb/c nude mice and transferred to a 70 μm cell strainer. The cell strainer was subsequently placed in a 6-well suspension culture plate containing 5 mL media (RPMI+10% FBS). The spleens were crushed against the cell strainer using the flat end of a 10 mL syringe plunger and the cell strainer was washed with 5 mL media. The cell strainer was discarded, and the cell suspension was washed in PBS. Red blood cells were removed using PharmaLyse (BD). The cell suspension was washed in media, resuspended in CryoStor® CS10 ([…]) and frozen. On assay day, mouse splenocytes were thawed in warm assay buffer (RPMI+10% FBS). Cells were spun down and resuspended in fresh assay buffer. 100,000 cells were added to each well of plates containing test compound. For test compound preparation, each compound was initially diluted to 1 mM in DMSO and further diluted in assay buffer. A 4-fold 11-point titration starting from 15 μM was performed. Cells were incubated with test compound at 37° C.+5% CO2 for 24 hours before supernatant was harvested. Murine IL6 (mIL6) and murine TNFα (mTNFα) were quantified in the supernatant using homogeneous time resolved fluorescence (Cisbio).
as §2

[2] = hIFNα in supernatant, EC50 values approximated and divided into groups, read-out: PBMC IFNa EC50
[3] = hIL6 in supernatant, read-out: PBMC IL6 EC50

EC50 (hTLR7) | EC50 (mTLR7) | EC50 (Mouse splenocytes) | SMILES | EC50 [1, 2] | EC50 [1, 3]
311 nM | 35.9 nM | 1390 nM | CCCCCNc1nc(N)c2nc(O)n(Cc3ccc(CNC4CCNCC4)cc3)c2n1 [Compound 194, 6-amino-2-(pentylamino)-9-(4-((piperidin-4-ylamino)methyl)benzyl)-9H-purin-8-ol] | 1 to 10 nM | 1100 nM
0.5 nM | 4.3 nM | 171 nM | CCCN(CCC)Cc1ccc(Cn2c(O)nc3c(N)nc(OCC)nc32)c(OC)c1 [Compound 125, 6-amino-9-(4-((dipropylamino)methyl)-2-methoxybenzyl)-2-ethoxy-9H-purin-8-ol] | 1 to 10 nM | 2230 nM
13.3 nM | 157 nM | 137 nM | CCOc1nc(N)c2nc(O)n(Cc3ccc(CNCCN4CCOCC4)cc3OC)c2n1 [Compound 135, 6-amino-2-ethoxy-9-(2-methoxy-4-(((2-morpholinoethyl)amino)methyl)benzyl)-9H-purin-8-ol] | 0.1 to 1 nM | 42.3 nM
259 nM | 1960 nM | ≥ 1000 nM | CCOc1nc(N)c2nc(O)n(Cc3ccc(CN[C@@H](CO)C(=O)O)cc3OC)c2n1 [Compound 119, (4-((6-amino-2-ethoxy-8-hydroxy-9H-purin-9-yl)methyl)-3-methoxybenzyl)-L-serine] | > 10 nM | 3910 nM
12.1 nM | 125 nM | 68.8 nM | CCOc1nc(N)c2nc(O)n(Cc3ccc(CNCc4ccc(CN(CC(=O)O)CC(=O)O)cc4)cc3OC)c2n1 [Compound 151, 2,2′-((4-(((4-((6-amino-2-ethoxy-8-hydroxy-9H-purin-9-yl)methyl)-3-methoxy-benzyl)amino)methyl)benzyl)azanediyl)diacetic Acid] | > 10 nM | 59.2 nM
0.9 nM | 16.9 nM | 13.2 nM | CCOc1nc(N)c2nc(O)n(Cc3ccc(CNCc4ccc(CNCc5ccccc5)cc4)cc3OC)c2n1 [Compound 147, 6-amino-9-(4-(((4-((benzylamino)methyl)benzyl)amino)methyl)-2-methoxy-benzyl)-2-ethoxy-9H-purin-8-ol] | < 0.1 nM | 38.8 nM

The remaining lines, values behind:

SMILES | EC50 (hTLR7) | EC50 (mTLR7) | EC50 (Mouse splenocytes) | EC50 [1, 2] | EC50 [1, 3]
CCCCOc1nc(N)c2nc(O)n(Cc3ccc(CN4CCC(CCN)CC4)cc3OC)c2n1 [Compound 158, 6-amino-9-(4-((4-(2-aminoethyl)piperidin-1-yl)methyl)-2-methoxybenzyl)-2-butoxy-9H-purin-8-ol] | 0.1 nM | 0.1 nM | 3.2 nM | 1 to 10 nM | –
CCCC(CO)Oc1nc(N)c2nc(O)n(Cc3ccc(CN)cc3)c2n1 (stereo not drawn) [Compound 182, 6-amino-9-(4-(aminomethyl)benzyl)-2-((1-hydroxypentan-2-yl)oxy)-9H-purin-8-ol] | 2.1 nM | 5.9 nM | 2.4 nM | > 10 nM | 5220 nM
CCCCOc1nc(N)c2nc(O)n(Cc3ccc(CNCC(C)(C)O)cc3OC)c2n1 [Compound 159, 6-amino-2-butoxy-9-(4-(((2-hydroxy-2-methylpropyl)amino)methyl)-2-methoxybenzyl)-9H-purin-8-ol] | 1.6 nM | 2.9 nM | 2 nM | < 0.1 nM | –
CCCCOc1nc(N)c2nc(O)n(Cc3ccc(CN4CCNCC4)cc3OC)c2n1 [Compound 154, 6-amino-2-butoxy-9-(2-methoxy-4-(piperazin-1-ylmethyl)benzyl)-9H-purin-8-ol] | 0.2 nM | 2.9 nM | 217 nM | > 10 nM | 1970 nM
CCOc1nc(N)c2nc(O)n(Cc3ccc(CN(CC)CC)cc3OC)c2n1 [Compound 102, 6-amino-9-(4-((diethylamino)methyl)-2-methoxybenzyl)-2-ethoxy-9H-purin-8-ol] | 2 nM | 5 nM | 99.7 nM | < 0.1 nM | 69.1 nM
CCCCOc1nc(N)c2nc(O)n(Cc3ccc(CN4CCC(CN)CC4)cc3OC)c2n1 [Compound 156, 6-amino-9-(4-((4-(aminomethyl)piperidin-1-yl)methyl)-2-methoxybenzyl)-2-butoxy-9H-purin-8-ol] | 0.3 nM | 0.3 nM | 2.5 nM | > 10 nM | –
